{"source": "paper PMC11050070", "about": "“Chemical Modifications to Enhance the Drug Properties of a VIP Receptor Antagonist (ANT) Peptide” (International Journal of Molecular Sciences, 2024)", "assay": "Plasma stability T cell activation study", "assay_type": "in vitro ADME", "settings": "200 μM peptide mixed 1:1 with healthy donors' plasma, 37 °C, aliquots at 24, 48, 72, 96 hrs; read-out pooled human T cell activation at 10 μM; three donors' plasma; retained up to 96 h (longest time tested); Figure S1", "description": "1.3 Plasma Stability T Cell Activation Study\n200 μM ANT308 or 200 μM ANT308K-PEG were mixed with healthy donors’ plasma at 1:1 ratio, followed by incubation at 37 °C. Aliquots (150 μL) were collected at 24 hrs, 48 hrs, 72 hrs, and 96 hrs and stored at -80 °C before pooled human T cells activation assay. Assays were performed with three different donor ’s plasma.\nActivated T cells Activated T cells\nNon-Activated T cells Non-Activated T cells […]\nDiffe rentDonors’ plasma Diffe rentDonors’ plasma\nPre-incubation Time ( hrs) Pre-incubation Time ( hrs)\nFigure S1A-F: Plasma stability and human T cells activation. After incubation with healthy donors’ plasma at 37 °C for 24hrs, 48hrs, 72hrs, and 96hrs. 10 μM ANT308 (A,C,E) or 10 μM ANT308K-PEG (B,D,F) were directly mixed with isolated & pooled human T cells with the […]", "note": "Where no end group is shown, it is not given here.", "data": [{"substance": "KPRRPYTSDYTRLRKQMAVKKYLNLILN-NH2 [ANT308]", "values": [{"measurement": "time of incubation in human plasma after which the ability to activate human T cells is retained", "result": "≥ 96", "unit": "h"}]}]}
